Assay results taken from patent US20030162759A1, “Aldosterone blocker therapy to prevent or treat inflammation-related disorders” (priority 2000, published 2003).
Several values for one entry are separate records, joined by “and”; a condition that tells them apart may be missing. Equal values may be shown once. Entries after “also recorded” stand apart in the source; their conditions may differ.

What was measured:
Type in all cases: in vivo, rat
osteopontin = experiment: Assay A angiotensin II infusion model: osteopontin immunostaining of hearts; conditions: angiotensin II infused, saline-drinking rats; eplerenone 100 mpk
Procedure: (§1) Male Wistar rats (n—50, 10/group; BW=200 g)
(§2) 2. Angiotensin 11 (25 ng/min, sc via aizet minipump)
Osteopontin (also known as early T-cell activation-1, Eta-1) is a secreted glycoprotein with pro-inflammatory characteristics that mediates chemoattraction, activation and migration of monocytes.

cyclooxygenase-2 (COX-2) = experiment: Assay A angiotensin II infusion model: cyclooxygenase-2 immunostaining of hearts; conditions: angiotensin II infused rats; eplerenone 100 mpk
Procedure: as §1, §2

interstitial collagen = experiment: Assay C: interstitial collagen volume fraction (Picrosirius Red image analysis); conditions: for Interstitial Collagen Volume Fraction: Table 9.14, 7-day protocol; for Collagen Volume Fraction (%), Mean: group mean; for ICVF (interstitial collagen volume fraction): eplerenone 100 mg/kg/day
Procedure: The procedure of Assay B was expanded upon in a further study. […] Myocardial tissue from animals in each treatment group was examined after 7, 14, or 30 days of treatment. […] Lesions were preceded by the expression and progressive upregulation of proinflammatory molecules. […] Prior to surgery the animals were individually weighed and placed in one of the following groups: […] Potassium chloride supplementation was added to the saline solution in order to prevent the potential hypokalemia associated with aldosterone excess. […] Louis, Mo.) was inserted subcutaneously at the nape of the neck. Aldosterone was administered at a dose of […]. […] Animals were sacrificed from each group (n=8-13) after 7, 14, or 30 days of treatment. The equatorial regions of the heart were routinely processed into paraffin with an automated tissue processor (Hypercenter XP, Shandon/Lipshaw Inc., Pittsburgh, Pa.) and embedded into fresh paraffin apical side down (Shandon Embedding Center, Shandon/Lipshaw Inc.). […] Ten m sections were stained with the collagen specific stain, Picrosirius Red F3BA (Saturated Picric Acid (Sigma Chemical, St. […] Waterbury, Conn.) (6). Mounted tissues were hydrated with water. […] Slides were coverslipped with #1 cover glass using Permount Histological Mounting Media (Fisher Scientific). Two slides mounted with 5 m sections were cut for each animal. One slide was processed for H&E staining and one for Periodic Acid Schiff (PAS) staining. The H&E and PAS were used for pathological scoring of the hearts. Picrosirius Red F3BA stained slides were used to quantify interstitial collagen with a Videometric 150 Image Analysis System (Oncor Inc., Gaitherburg, Md.). […] Garden City, N.Y.) attached to a Nikon Optiphot microscope (Nikon Inc.). A Toshiba 3 CCD Color Video Camera (Model#[…] Corp. Japan) relayed the images in RGB format from the microscope to a 386 computer with a […] video board. The […] video board/[…] software application (Oncor Inc.) converted RGB images to HIS (Hue, Intensity, Saturation) format for display and analysis on a Sony Trinitron Color Video Monitor (Model#PVM-1342Q, Sony Corp, Tokyo, Japan) at a magnification of 305×. […] The […] application then measured only pixels which fell into thresholding limits. The system was calibrated with a micrometer scale (EM Sciences, FT. Washington, Pa. 19034), which allowed data to be expressed in mm^2 or m^2.

hydroxyproline = experiment: Assay C: myocardial hydroxyproline assay; conditions: for Hydroxyproline: individual rats; for Hydroxyproline, Mean: group mean
Procedure: The procedure of Assay B was expanded upon in a further study. […] Myocardial tissue from animals in each treatment group was examined after 7, 14, or 30 days of treatment. […] Lesions were preceded by the expression and progressive upregulation of proinflammatory molecules. […] Prior to surgery the animals were individually weighed and placed in one of the following groups: […] Potassium chloride supplementation was added to the saline solution in order to prevent the potential hypokalemia associated with aldosterone excess. […] Louis, Mo.) was inserted subcutaneously at the nape of the neck. Aldosterone was administered at a dose of […]. […] Animals were sacrificed from each group (n=8-13) after 7, 14, or 30 days of treatment. Following exsanguination, hearts and kidneys were isolated, removed, rinsed in cold phosphate-buffered saline, and blotted dry. […] Myocardial hydroxyproline concentration was measured by a colorimetric assay that quantifies the reaction between oxidized hydroxyproline, and p-dimethylaminobenzaldehyde as described previously (4). […] Dried tissues and a positive collagen control (Bovine Collagen Type I, Sigma, St. […] T. Baker, Phillipsburg, N.J.) for 5 min at 25° C. […] Samples were incubated at 60° C. for 30 min, cooled to room temperature, and absorbance was monitored at 558 nm. Hydroxyproline content was quantitated from a freshly prepared standard curve of trans-4-hydroxy-L-proline (Sigma, St. Louis, Mo.). All samples and standards were performed in duplicate.

| Structure (SMILES) | Osteopontin expression in the heart (immunostaining) (osteopontin) | Cyclooxygenase-2 expression in the heart (immunostaining) (cyclooxygenase-2 (COX-2)) | Interstitial Collagen Volume Fraction (interstitial collagen; group Mean) | Interstitial Collagen Volume Fraction (interstitial collagen; individual rats, listed as Aldosterone + salt) | Collagen Volume Fraction (%), Mean (interstitial collagen; 14 days of treatment) | Collagen Volume Fraction (%), Mean (interstitial collagen; 30 days of treatment) | ICVF (interstitial collagen volume fraction) (interstitial collagen; mean ± SEM after 7 days of treatment) | ICVF (interstitial collagen volume fraction) (interstitial collagen; mean ± SEM after 14 days of treatment) | ICVF (interstitial collagen volume fraction) (interstitial collagen; mean ± SEM after 30 days of treatment) | Hydroxyproline (hydroxyproline; Table 9.14, 7-day protocol, myocardial, listed as Aldosterone + salt) | Hydroxyproline (hydroxyproline; 14 days of treatment, eplerenone 100 mg/kg/day, listed as Aldosterone + salt) | Hydroxyproline (hydroxyproline; 30 days of treatment, eplerenone 100 mg/kg/day, listed as Aldosterone + salt) | Hydroxyproline, Mean (hydroxyproline; 14 days of treatment) | Hydroxyproline, Mean (hydroxyproline; 30 days of treatment) | Hydroxyproline (hydroxyproline; 14 days of treatment, eplerenone 100 mg/kg/day, listed as Eplerenone + aldosterone + salt) | Hydroxyproline (hydroxyproline; 30 days of treatment, eplerenone 100 mg/kg/day, listed as Eplerenone + aldosterone + salt) |
| --- | --- | --- | --- | --- | --- | --- | --- | --- | --- | --- | --- | --- | --- | --- | --- | --- |
| C[C@]12CCC(=O)C=C1CC[C@@H]1[C@@H]2[C@@H](O)C[C@]2(C=O)[C@@H](C(=O)CO)CC[C@@H]12 [aldosterone] | restored osteopontin expression | restored the presence of cycloxygenase-2 in coronary arteries | 5.6% | 3.2% and 6.5% (2×) and 6.1% and 6.9% and 4.4% and 3.1% | 5.1% | 7.9% | 5.6 ± 0.6% | 5.1 ± 0.5% | 7.9 ± 1.0% | 2.10 µg/mg | 2.60 µg/mg and 3.00 µg/mg | 4.00 µg/mg | – | – | – | – |
| COC(=O)[C@@H]1CC2=CC(=O)CC[C@]2(C)[C@@]23O[C@@H]2C[C@@]2(C)[C@@H](CC[C@@]24CCC(=O)O4)[C@H]13 [eplerenone, Pregn-4-ene-7,21-dicarboxylic acid, 9,11-epoxy-17-hydroxy-3-oxo-, γ-lactone, methyl ester, (7α, 11α, 17β) -] | prevented osteopontin expression | prevention by eplerenone of induction of COX-2 expression; also recorded: markedly reduced and in most cases completely prevented the expression of cycloxygenase-2 | – | – | 4.5% | 6.2% | – | – | – | – | – | – | 4.46 µg/mg | 4.10 µg/mg | 6.80 µg/mg | 6.40 µg/mg |
